One test relates to MOLM14 (D835Y) cells. Nature of the test: Combination drug screening, 10 x 10 matrix, cell viability (Cell Titer Glo). Type of test: cell-based. The settings on record: for concentration required to reach a similar level of potentiation as Compound 106: 7.8 nM Venetoclax, 10×10 combination, compared with Compound 106; for Interaction with Venetoclax: combination with Venetoclax, 10 x 10 dataset; for Sum Excess HSA: 48 hours. As for the experimental part:
Briefly, 10 nL of compounds were acoustically dispensed into 1536-well white polystyrene tissue culture-treated plates with an Echo 550 acoustic liquid handler (Labcyte). MOLM14 (D835Y) cells were then added to compound-containing plates at a density of 500-cells/well in 5 μL of medium. A 10-point custom concentration range was used for all listed drugs. Plates were incubated for 48 hours at standard incubator conditions covered by a stainless steel gasketed lid to prevent evaporation. 48 h post compound addition, 3 μL of Cell Titer Glo (Promega) were added to each well and plates were incubated at room temperature for 15 minutes with the stainless-steel lid in place. Luminescence readings were taken using a Viewlux imager (PerkinElmer) with a 2 second exposure time per plate.
However, different methodologies may yield different numerical scores, and different definitions of what constitutes a deviation from mere additivity vs true drug synergy.
However, the utility in certain drug combinations vs others should not be distinguished based on cutoffs between HSA scores, because the score itself is only a relative indicator that is completely dependent on experimental design and is not an absolute number. Furthermore, the concept of what constitutes clinically meaningful drug synergy is something that is still being debated, not only between pharmacologists and physicians, but amongst pharmacologists themselves.
(In ATP-based viability assays light output follows the ATP content of the culture.)

Another test has as its target T1, IRAK4 (Homo sapiens, UniProt Q9NWZ3).
T1 sequence (Q9NWZ3 1-460): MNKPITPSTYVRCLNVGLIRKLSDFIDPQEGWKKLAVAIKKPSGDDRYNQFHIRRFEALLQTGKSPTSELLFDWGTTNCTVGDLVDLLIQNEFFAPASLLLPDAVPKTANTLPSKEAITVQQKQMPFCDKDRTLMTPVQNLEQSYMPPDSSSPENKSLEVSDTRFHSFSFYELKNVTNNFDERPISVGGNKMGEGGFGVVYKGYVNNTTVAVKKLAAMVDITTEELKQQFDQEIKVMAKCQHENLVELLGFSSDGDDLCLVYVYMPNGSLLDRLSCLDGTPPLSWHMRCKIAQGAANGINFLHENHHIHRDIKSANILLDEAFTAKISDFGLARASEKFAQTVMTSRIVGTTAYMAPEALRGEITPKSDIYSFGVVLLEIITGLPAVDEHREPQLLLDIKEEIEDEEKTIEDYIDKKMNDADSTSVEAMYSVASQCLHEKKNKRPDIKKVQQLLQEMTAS
Nature of the test: RBC HotSpot Kinase Assay, IRAK4. Type of test: biochemical. Set-up: purchased Reaction Biology (RBC HotSpot Kinase Assay). In outline: (§1)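 Radiometric filter-binding (HotSpot) activity assay on isolated recombinant kinase, possibly truncated or catalytic domain only, in 20 mM Hepes pH 7.5, 10 mM MgCl2, 1 mM EGTA, 2 mM DTT, 1% DMSO. Compound preincubated 20 min with kinase and substrate, then ^33P-ATP added. Reaction 2 h at room temperature, read by P81 filter binding.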

The next test addresses T2, IRAK1 (Homo sapiens, UniProt P51617).
T2 construct: purchased Reaction Biology (RBC HotSpot Kinase Assay)
In words: RBC HotSpot Kinase Assay, IRAK1. The format is biochemical. The method, boiled down: as §1

A further test addresses T3, FLT3 (Homo sapiens, UniProt P36888).
T3 construct: purchased Reaction Biology (RBC HotSpot Kinase Assay)
T3 sequence (P36888 564-958 limits assumed): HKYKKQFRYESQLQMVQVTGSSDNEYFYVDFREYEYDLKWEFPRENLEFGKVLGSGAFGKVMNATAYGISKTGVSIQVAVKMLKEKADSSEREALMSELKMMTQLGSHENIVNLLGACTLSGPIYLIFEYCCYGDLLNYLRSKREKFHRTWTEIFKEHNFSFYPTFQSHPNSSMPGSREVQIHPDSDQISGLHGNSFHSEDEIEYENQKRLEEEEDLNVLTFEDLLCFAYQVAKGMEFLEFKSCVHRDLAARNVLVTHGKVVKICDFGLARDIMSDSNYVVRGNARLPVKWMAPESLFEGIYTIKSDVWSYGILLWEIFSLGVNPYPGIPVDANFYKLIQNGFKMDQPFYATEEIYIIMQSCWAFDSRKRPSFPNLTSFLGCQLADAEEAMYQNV
In words: RBC HotSpot Kinase Assay, FLT3. Type of test: biochemical. The method, boiled down: as §1

Where [1] appears, read: combination with Compound 96, 10 x 10 dataset.

Each structure is given as a SMILES string.

T2 sequence (P51617 whole entry): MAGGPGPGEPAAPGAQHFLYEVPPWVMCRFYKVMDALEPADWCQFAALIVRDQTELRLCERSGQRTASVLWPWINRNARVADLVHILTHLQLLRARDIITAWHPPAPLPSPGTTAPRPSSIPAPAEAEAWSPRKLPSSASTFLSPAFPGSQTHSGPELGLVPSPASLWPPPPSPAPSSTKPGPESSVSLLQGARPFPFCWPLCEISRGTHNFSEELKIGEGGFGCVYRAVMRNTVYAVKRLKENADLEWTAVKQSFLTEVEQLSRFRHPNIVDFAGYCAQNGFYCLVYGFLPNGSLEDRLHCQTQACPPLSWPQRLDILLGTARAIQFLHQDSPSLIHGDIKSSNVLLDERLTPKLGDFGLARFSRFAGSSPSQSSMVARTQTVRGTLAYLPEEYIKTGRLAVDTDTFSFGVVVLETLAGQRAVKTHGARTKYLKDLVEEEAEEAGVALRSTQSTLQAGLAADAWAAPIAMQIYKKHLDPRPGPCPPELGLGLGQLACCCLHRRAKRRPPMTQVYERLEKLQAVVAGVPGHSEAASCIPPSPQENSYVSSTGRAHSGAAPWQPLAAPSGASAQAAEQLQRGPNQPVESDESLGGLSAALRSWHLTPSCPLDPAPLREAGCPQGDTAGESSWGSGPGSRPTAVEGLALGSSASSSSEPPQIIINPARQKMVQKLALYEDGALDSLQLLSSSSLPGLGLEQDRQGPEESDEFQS

On to `Cc1cc(-c2nc(C(=O)Nc3cc4oc(N5CCOCC5)nc4nc3N3CC[C@@H](O)C3)co2)ccn1` [CA-4948, reference compound], for which, in the test with MOLM14 (D835Y) cells, the “concentration required to reach a similar level of potentiation as Compound 106” value (“concentration required” below) is listed as “substantially higher concentrations” and the “Interaction with Venetoclax” value was “synergize”.
For the compound `C[C@@H]1C[C@H]2[C@@H]3CCC4=CC(=O)C=C[C@]4(C)[C@@]3(F)[C@@H](O)C[C@]2(C)[C@@]1(O)C(=O)CO` [Dexamethasone, dexamethasone, reference compound], the “Sum Excess HSA” value with MOLM14 (D835Y) cells (setting [1]) was −69.67.
`CCOC(=O)c1ccc(C#Cc2ccc3c(c2)C(C)(C)CCS3)nc1` [Tazarotene]: the “Sum Excess HSA” value in the test with MOLM14 (D835Y) cells (setting [1]) is −189.
Regarding `CC(C)(C)c1cc(NC(=O)Nc2ccc(-c3cn4c(n3)sc3cc(OCCN5CCOCC5)ccc34)cc2)no1` [Quizartinib, reference compound], in the test on MOLM14 (D835Y) cells, the “concentration required” value is recorded as “substantially higher concentrations” and the “Interaction with Venetoclax” value is “synergize”.
As to `Cc1c(-c2c(-c3ccc(F)o3)sc3ncnc(O[C@H](Cc4ccccc4OCc4ccnn4CC(F)(F)F)C(=O)O)c23)ccc(OCCN2CCN(C)CC2)c1Cl` [Compound S63845], in the test on MOLM14 (D835Y) cells (setting [1]), the “Sum Excess HSA” value worked out at 297.3.
In the case of `Cc1cnc(-c2ccc(-c3ccc(NC(=O)Nc4c(F)cc(F)cc4F)cc3F)c3c2C(=O)NC3)[nH]1` [CG-806, reference compound], in the test on MOLM14 (D835Y) cells, the “concentration required” value is “substantially higher concentrations” and the “Interaction with Venetoclax” value was “synergize”.
For `CN1C(=O)[C@@H](NC(=O)c2n[nH]c(Cc3ccccc3)n2)COc2ccccc21` [GSK-2982772], in the test with MOLM14 (D835Y) cells (setting [1]), the “Interaction with Compound 96” value is “Synergestic” and the “Sum Excess HSA” value is recorded as −577.
With `C[C@]12C=CC(=O)C=C1CC[C@@H]1[C@@H]2[C@@H](O)C[C@@]2(C)[C@H]1CC[C@]2(O)C(=O)CO` [Prednisolone, prednisolone, reference compound], the “Sum Excess HSA” value in the test on MOLM14 (D835Y) cells (setting [1]) was −46.1.
On the same count and under the same terms, under `CC(C)[C@@H](CS(=O)(=O)C(C)C)N1C(=O)[C@@](C)(CC(=O)O)C[C@H](c2cccc(Cl)c2)[C@H]1c1ccc(Cl)cc1` [AMG-232] stands −222.9.
The term IC50 denotes the concentration that gives 50% inhibition. Read a low IC50 as greater potency in that assay. With `CC(C)n1cc(-c2ccc3ncc(-c4cccc(NC5CCC6(CNC6)C5)n4)n3n2)cn1` (stereo not shown) [Compound 46, N-(6-(6-(1-isopropyl-1H-pyrazol-4-yl)imidazo[1,2-b]pyridazin-3-yl)pyridin-2-yl)-2-azaspiro[3.4]octan-6-amine], the values for the IC50 on IRAK4, against IRAK1 and at FLT3 were 985 nM, 2180 nM and 6 nM, respectively.
As to `F[C@H]1CNC[C@@H]1Nc1cccc(-c2cnc3ccc(N4CCOCC4)nn23)n1` [Compound 95, N-((3S,4S)-4-fluoropyrrolidin-3-yl)-6-(6-morpholinoimidazo[1,2-b]pyridazin-3-yl)pyridin-2-amine], the IC50 at IRAK4 came to 24 nM; on IRAK1, 1180 nM; on FLT3, 4 nM.
On the same counts, the results for `c1ccc(-n2cc(-c3ccc4ncc(-c5cccc(NC6CCC7(CNC7)C6)n5)n4n3)cn2)cc1` (stereo not shown) [Compound 47, N-(6-(6-(1-phenyl-1H-pyrazol-4-yl)imidazo[1,2-b]pyridazin-3-yl)pyridin-2-yl)-2-azaspiro[3.4]octan-6-amine] are 3200 nM, greater than 10000 nM and 19 nM.
For `FC(F)n1cc(-c2ccc3ncc(-c4cccc(N[C@H]5CCNC[C@@H]5F)n4)n3n2)cn1` [Compound 6, 6-(6-(1-(difluoromethyl)-1 H-pyrazol-4-yl)imidazo[1,2-b]pyridazin-3-yl)-N-((3S,4S)-3-fluoropiperidin-4-yl)pyridin-2-amine], the 50% inhibitory concentration (IC50) on IRAK4 came to 62 nM; on IRAK1, 296 nM; against FLT3 it was 4 nM.
On the same counts, the results for `c1cc(NC2CC3(CNC3)C2)nc(-c2cnc3ccc(-c4cnn(C5CNC5)c4)nn23)c1` [Compound 37, N-(6-(6-(1-(azetidin-3-yl)-1H-pyrazol-4-yl)imidazo[1,2-b]pyridazin-3-yl)pyridin-2-yl)-2-azaspiro[3.3]heptan-6-amine] are 4320 nM, greater than 10000 nM and 7 nM.
On the same counts, the results for `CC(C)n1cc(-c2ccc3ncc(-c4cccc(NC5CCNC5)n4)n3n2)cn1` (stereo not shown) [Compound 27, 6-(6-(1-isopropyl-1H-pyrazol-4-yl)imidazo[1,2-b]pyridazin-3-yl)-N-(pyrrolidin-3-yl)pyridin-2-amine] are 609 nM, 1620 nM and 5 nM.
For `c1cc(NC2CC3(CCNC3)C2)nc(-c2cnc3ccc(-c4cnn(C5CCOCC5)c4)nn23)c1` (stereo not shown) [Compound 41, N-(6-(6-(1-(tetrahydro-2H-pyran-4-yl)-1H-pyrazol-4-yl)imidazo[1,2-b]pyridazin-3-yl)pyridin-2-yl)-6-azaspiro[3.4]octan-2-amine] the same measures were 3480 nM, greater than 10000 nM and 18 nM.
As to `COc1cc2ncc(-c3cccc(N[C@@H]4CCCNC4)n3)n2nc1N1CCCC1=O` [Compound 137, (R)-1-(7-methoxy-3-(6-(piperidin-3-ylamino)pyridin-2-yl)imidazo[1,2-b]pyridazin-6-yl)pyrrolidin-2-one], the IC50 is 1980 nM against IRAK4, greater than 10000 nM against IRAK1 and 13 nM against FLT3.
For `c1cc(NC2CC3(CCNC3)C2)nc(-c2cnc3ccc(-c4cnn(C5CNC5)c4)nn23)c1` (stereo not shown) [Compound 44, N-(6-(6-(1-(azetidin-3-yl)-1H-pyrazol-4-yl)imidazo[1,2-b]pyridazin-3-yl)pyridin-2-yl)-6-azaspiro[3.4]octan-2-amine] the same measures were 4340 nM, greater than 10000 nM and 4 nM.
With `COc1ccc2ncc(-c3cccc(N[C@H]4CNC[C@@H]4F)n3)n2n1` [Compound 87, N-((3S,4S)-4-fluoropyrrolidin-3-yl)-6-(6-methoxyimidazo[1,2-b]pyridazin-3-yl)pyridin-2-amine], the values for the IC50 on IRAK4, at IRAK1 and on FLT3 were 83 nM, 1650 nM and 3 nM, respectively.
For the compound `Cc1oncc1-c1ccc2ncc(-c3cccc(NC4CC5(CNC5)C4)n3)n2n1` [Compound 36, N-(6-(6-(5-methylisoxazol-4-yl)imidazo[1,2-b]pyridazin-3-yl)pyridin-2-yl)-2-azaspiro[3.3]heptan-6-amine], the values for the half-maximal inhibitory concentration (IC50) against IRAK4, against IRAK1 and on FLT3 were 2700 nM, 3780 nM and 5 nM, respectively.
With `FC(F)c1ccc2ncc(-c3cccc(N[C@H]4CNC[C@@H]4F)n3)n2n1` [Compound 78, 6-(6-(difluoromethyl)imidazo[1,2-b]pyridazin-3-yl)-N-((3S,4S)-4-fluoropyrrolidin-3-yl)pyridin-2-amine], the IC50 at IRAK4 came out at 29 nM; at IRAK1, 1860 nM; at FLT3, 6 nM.
For `c1ccc(-n2cc(-c3ccc4ncc(-c5cccc(NC6CCNC6)n5)n4n3)cn2)cc1` (stereo not shown) [Compound 28, 6-(6-(1-phenyl-1H-pyrazol-4-yl)imidazo[1,2-b]pyridazin-3-yl)-N-(pyrrolidin-3-yl)pyridin-2-amine], the 50% inhibitory concentration (IC50) against IRAK4 worked out at 2360 nM; against IRAK1, 6580 nM; on FLT3, 2 nM.
For the compound `c1cc(NC2CCNC2)nc(-c2cnc3ccc(-c4cn[nH]c4)nn23)c1` (stereo not shown) [Compound 26, 6-(6-(1H-pyrazol-4-yl)imidazo[1,2-b]pyridazin-3-yl)-N-(pyrrolidin-3-yl)pyridin-2-amine], the values for the IC50 at IRAK4, at IRAK1 and on FLT3 were 20 nM, 114 nM and 0.9 nM, respectively.

The record behind these values is US12534469B2 (CHILDREN'S HOSPITAL MEDICAL CENTER, priority 2020, dated 2026).
